Values after ≈ are worked out from the molar mass of the structure shown.
Assays:
Rattus norvegicus [1] = test: Anti-inflammatory activity in Rattus norvegicus Wistar albino (rat) assessed as carrageenan-induced paw edema at 66.69 mg/kg, po administered 1 hr prior to carrageenan-challenge measured at 2 hr relative to control; assay type: functional
Mus musculus [2] = test: Analgesic activity in Mus musculus (mouse) assessed as inhibition of acetic acid-induced writhing at 49.46 mg/kg, po measured after 5 min for 15 min relative to control; assay type: functional
[3] = Induction of nitric oxide release at 10^-4 M after 1 hr by Griess method relative to control; assay type: physicochemical; details: 100 µM
Aorta = test: Vasorelaxant activity in normotensive Rattus norvegicus Wistar albino (rat) aorta assessed as inhibition of norepinephrine-induced contraction; assay type: functional, tissue-based
Rattus norvegicus [4] = test: Anti-inflammatory activity in Rattus norvegicus Wistar albino (rat) assessed as carrageenan-induced paw edema at 66.69 mg/kg, po administered 1 hr prior to carrageenan-challenge measured at 1 hr relative to control; assay type: functional
Rattus norvegicus [5] = test: Anti-inflammatory activity in Rattus norvegicus Wistar albino (rat) assessed as carrageenan-induced paw edema at 66.69 mg/kg, po administered 1 hr prior to carrageenan-challenge measured at 3 hr relative to control; assay type: functional
Rattus norvegicus [6] = test: Gastrointestinal toxicity against Rattus norvegicus Wistar albino (rat) assessed as disruption of mucosal layer at 61.2 mg/kg po by HE-staining based […] microscopic analysis; assay type: organism-based; set-up: dose 61.2 mg/kg, route oral; details: in vivo
Rattus norvegicus [7] = test: Anti-inflammatory activity in Rattus norvegicus Wistar albino (rat) assessed as carrageenan-induced paw edema at 51.06 mg/kg, po administered 1 hr prior to carrageenan-challenge measured at 3 hr relative to control; assay type: functional
Rattus norvegicus [8] = test: Anti-inflammatory activity in Rattus norvegicus Wistar albino (rat) assessed as carrageenan-induced paw edema at 51.06 mg/kg, po administered 1 hr prior to carrageenan-challenge measured at 2 hr relative to control; assay type: functional
Rattus norvegicus [9] = test: Anti-inflammatory activity in Rattus norvegicus Wistar albino (rat) assessed as carrageenan-induced paw edema at 51.06 mg/kg, po administered 1 hr prior to carrageenan-challenge measured at 1 hr relative to control; assay type: functional
Mus musculus [10] = test: Analgesic activity in Mus musculus (mouse) assessed as inhibition of acetic acid-induced writhing at 37.87 mg/kg, po measured after 5 min for 15 min relative to control; assay type: functional
Rattus norvegicus [11] = test: Anti-inflammatory activity in Rattus norvegicus Wistar albino (rat) assessed as carrageenan-induced paw edema at 49.7 mg/kg, po administered 1 hr prior to carrageenan-challenge measured at 1 hr relative to control; assay type: functional
Rattus norvegicus [12] = test: Anti-inflammatory activity in Rattus norvegicus Wistar albino (rat) assessed as carrageenan-induced paw edema at 49.7 mg/kg, po administered 1 hr prior to carrageenan-challenge measured at 3 hr relative to control; assay type: functional
Mus musculus [13] = test: Analgesic activity in Mus musculus (mouse) assessed as inhibition of acetic acid-induced writhing at 37.28 mg/kg, po measured after 5 min for 15 min relative to control; assay type: functional
Rattus norvegicus [14] = test: Anti-inflammatory activity in Rattus norvegicus Wistar albino (rat) assessed as carrageenan-induced paw edema at 49.7 mg/kg, po administered 1 hr prior to carrageenan-challenge measured at 2 hr relative to control; assay type: functional
Rattus norvegicus [15] = test: Gastrointestinal toxicity against Rattus norvegicus Wistar albino (rat) assessed as disruption of mucosal layer at 59.64 mg/kg po by HE-staining based […] microscopic analysis; assay type: organism-based; set-up: dose 59.64 mg/kg, route oral; details: in vivo
Mus musculus [16] = test: Analgesic activity in Mus musculus (mouse) assessed as inhibition of acetic acid-induced writhing at 47.98 mg/kg, po measured after 5 min for 15 min relative to control; assay type: functional
Rattus norvegicus [17] = test: Anti-inflammatory activity in Rattus norvegicus Wistar albino (rat) assessed as carrageenan-induced paw edema at 63.98 mg/kg, po administered 1 hr prior to carrageenan-challenge measured at 3 hr relative to control; assay type: functional
Rattus norvegicus [18] = test: Anti-inflammatory activity in Rattus norvegicus Wistar albino (rat) assessed as carrageenan-induced paw edema at 63.98 mg/kg, po administered 1 hr prior to carrageenan-challenge measured at 1 hr relative to control; assay type: functional
Rattus norvegicus [19] = test: Anti-inflammatory activity in Rattus norvegicus Wistar albino (rat) assessed as carrageenan-induced paw edema at 63.98 mg/kg, po administered 1 hr prior to carrageenan-challenge measured at 2 hr relative to control; assay type: functional
Rattus norvegicus [20] = test: Gastrointestinal toxicity against Rattus norvegicus Wistar albino (rat) assessed as disruption of mucosal layer at 57.96 mg/kg po by HE-staining based […] microscopic analysis; assay type: organism-based; set-up: dose 57.96 mg/kg, route oral; details: in vivo
Rattus norvegicus [21] = test: Anti-inflammatory activity in Rattus norvegicus Wistar albino (rat) assessed as carrageenan-induced paw edema at 48.34 mg/kg, po administered 1 hr prior to carrageenan-challenge measured at 2 hr relative to control; assay type: functional
Mus musculus [22] = test: Analgesic activity in Mus musculus (mouse) assessed as inhibition of acetic acid-induced writhing at 35.85 mg/kg, po measured after 5 min for 15 min relative to control; assay type: functional
Rattus norvegicus [23] = test: Anti-inflammatory activity in Rattus norvegicus Wistar albino (rat) assessed as carrageenan-induced paw edema at 48.34 mg/kg, po administered 1 hr prior to carrageenan-challenge measured at 3 hr relative to control; assay type: functional
Rattus norvegicus [24] = test: Anti-inflammatory activity in Rattus norvegicus Wistar albino (rat) assessed as carrageenan-induced paw edema at 48.34 mg/kg, po administered 1 hr prior to carrageenan-challenge measured at 1 hr relative to control; assay type: functional
Rattus norvegicus [25] = test: Gastrointestinal toxicity against Rattus norvegicus Wistar albino (rat) assessed as disruption of mucosal layer at 24 mg/kg po by HE-staining based […] microscopic analysis; assay type: organism-based; set-up: dose 24 mg/kg, route oral; details: in vivo
Rattus norvegicus [26] = test: Anti-inflammatory activity in Rattus norvegicus Wistar albino (rat) assessed as carrageenan-induced paw edema at 20 mg/kg, po administered 1 hr prior to carrageenan-challenge measured at 3 hr relative to control; assay type: functional
Mus musculus [27] = test: Analgesic activity in Mus musculus (mouse) assessed as inhibition of acetic acid-induced writhing at 15 mg/kg, po measured after 5 min for 15 min relative to control; assay type: functional
Rattus norvegicus [28] = test: Anti-inflammatory activity in Rattus norvegicus Wistar albino (rat) assessed as carrageenan-induced paw edema at 20 mg/kg, po administered 1 hr prior to carrageenan-challenge measured at 2 hr relative to control; assay type: functional
Rattus norvegicus [29] = test: Anti-inflammatory activity in Rattus norvegicus Wistar albino (rat) assessed as carrageenan-induced paw edema at 20 mg/kg, po administered 1 hr prior to carrageenan-challenge measured at 1 hr relative to control; assay type: functional

CC(C)Cc1ccc(C(C)c2n[nH]c(=S)n2-c2ccc(C(=O)NNC(=O)CCO[N+](=O)[O-])c(C(=O)NNC(=O)CCO[N+](=O)[O-])c2)cc1 (stereo not given)
inhibition in vivo at 66.69 mg/kg (Rattus norvegicus [1]): 29.9%
inhibition in vivo at 49.46 mg/kg (Mus musculus [2]): 48.6%
Activity [3]: 0.57%
EC50 (Aorta): 34.9 µg/mL (≈ 50.7 µM)
inhibition in vivo at 66.69 mg/kg (Rattus norvegicus [4]): 27.9%
inhibition in vivo at 66.69 mg/kg (Rattus norvegicus [5]): 31.9%

CC(C)Cc1ccc(C(C)c2n[nH]c(=S)n2-c2ccccc2CC(=O)NNC(=O)CCO[N+](=O)[O-])cc1 (stereo not given)
Activity (Rattus norvegicus [6]): Non-toxic
Activity [3]: 0.32%
inhibition in vivo at 51.06 mg/kg (Rattus norvegicus [7]): 61.8%
inhibition in vivo at 51.06 mg/kg (Rattus norvegicus [8]): 56.5%
EC50 (Aorta): 58.6 µg/mL (≈ 111 µM)
inhibition in vivo at 51.06 mg/kg (Rattus norvegicus [9]): 51.5%
inhibition in vivo at 37.87 mg/kg (Mus musculus [10]): 56.1%

CC(C)Cc1ccc(C(C)c2n[nH]c(=S)n2-c2ccccc2CC(=O)NNC(=O)CO[N+](=O)[O-])cc1 (stereo not given)
Activity [3]: 0.35%
inhibition in vivo at 49.7 mg/kg (Rattus norvegicus [11]): 54.5%
inhibition in vivo at 49.7 mg/kg (Rattus norvegicus [12]): 62.8%
EC50 (Aorta): 55.3 µg/mL (≈ 108 µM)
inhibition in vivo at 37.28 mg/kg (Mus musculus [13]): 59%
inhibition in vivo at 49.7 mg/kg (Rattus norvegicus [14]): 58.8%
Activity (Rattus norvegicus [15]): Non-toxic

CC(C)Cc1ccc(C(C)c2n[nH]c(=S)n2-c2ccc(C(=O)NNC(=O)CO[N+](=O)[O-])c(C(=O)NNC(=O)CO[N+](=O)[O-])c2)cc1 (stereo not given)
inhibition in vivo at 47.98 mg/kg (Mus musculus [16]): 52.6%
Activity [3]: 0.42%
inhibition in vivo at 63.98 mg/kg (Rattus norvegicus [17]): 41.9%
inhibition in vivo at 63.98 mg/kg (Rattus norvegicus [18]): 38.8%
EC50 (Aorta): 38.7 µg/mL (≈ 58.6 µM)
inhibition in vivo at 63.98 mg/kg (Rattus norvegicus [19]): 40.1%

CC(C)Cc1ccc(C(C)c2n[nH]c(=S)n2-c2ccc(C(=O)NNC(=O)CCO[N+](=O)[O-])cc2)cc1 (stereo not given)
Activity [3]: 0.39%
inhibition in vivo at 49.7 mg/kg (Rattus norvegicus [11]): 52.1%
inhibition in vivo at 49.7 mg/kg (Rattus norvegicus [12]): 61.8%
EC50 (Aorta): 30.5 µg/mL (≈ 59.5 µM)
inhibition in vivo at 37.28 mg/kg (Mus musculus [13]): 64.8%
inhibition in vivo at 49.7 mg/kg (Rattus norvegicus [14]): 57.1%
Activity (Rattus norvegicus [15]): Non-toxic

CC(C)Cc1ccc(C(C)c2n[nH]c(=S)n2-c2ccc(C(=O)NNC(=O)CO[N+](=O)[O-])cc2)cc1 (stereo not given)
Activity [3]: 0.48%
Activity (Rattus norvegicus [20]): Non-toxic
inhibition in vivo at 48.34 mg/kg (Rattus norvegicus [21]): 56.5%
EC50 (Aorta): 42.8 µg/mL (≈ 85.8 µM)
inhibition in vivo at 35.85 mg/kg (Mus musculus [22]): 63.6%
inhibition in vivo at 48.34 mg/kg (Rattus norvegicus [23]): 61.2%
inhibition in vivo at 48.34 mg/kg (Rattus norvegicus [24]): 52.7%

O=C(O)Cc1ccccc1Nc1c(Cl)cccc1Cl [DICLOFENAC]
Activity (Rattus norvegicus [25]): Toxic

CC(C)Cc1ccc(C(C)C(=O)O)cc1 (stereo not given) [IBUPROFEN]
inhibition in vivo at 20 mg/kg (Rattus norvegicus [26]): 62.8%
inhibition in vivo at 15 mg/kg (Mus musculus [27]): 62.4%
inhibition in vivo at 20 mg/kg (Rattus norvegicus [28]): 58.2%
inhibition in vivo at 20 mg/kg (Rattus norvegicus [29]): 53.9%

From ChEMBL document CHEMBL3045521, “Synthesis and evaluation of anti-inflammatory, analgesic, ulcerogenicity and nitric oxide-releasing studies of novel ibuprofen analogs as nonulcerogenic derivatives” (Med Chem Res, 2011)
